From PMC6100113, “Involvement of CYP4F2 in the Metabolism of a Novel Monophosphate Ester Prodrug of Gemcitabine and Its Interaction Potential In Vitro” (Molecules : A Journal of Synthetic Chemistry and Natural …, 2018)

Columns and labels:
[1] = Metabolic stability in human hepatocytes; format: in vitro ADME; details: human hepatocytes 1 × 10^6 cell/mL, 1 μM, 37 °C
Procedure: For stability evaluation in human hepatocytes, cryopreserved primary human hepatocytes were revived according to vendor’s protocol and diluted to a density of 1 × 10^6 cell/mL with William’s Medium. The reaction was started with the addition of Compound-3 (1 μM). At specified time points, aliquots of 25 μL of the reaction mixtures were transferred into 100 μL ice-cold acetonitrile containing the internal standard. The samples were then centrifuged, and aliquots of 10 μL of the supernatants were transferred onto LC-MS/MS for the analysis of Compound-3 levels and its metabolites.

[2] = Metabolic stability in human intestinal microsomes; format: in vitro ADME; details: human intestinal microsomes 0.2 mg/mL, with NADPH, 1 μM, 37 °C
Procedure: Stability of Compound-3 was first investigated in microsomal systems from human and rat. The microsomal protein and Compound-3 concentrations were optimized to 0.2 mg/mL and 1 µM, respectively. Before the start of the incubation, reaction mixtures containing phosphate buffer (100 mM, pH 7.4), microsomes and Compound-3 in a total volume of 50 µL were warmed up at 37 °C for 10 min. The reaction was started with the addition of NADPH at a final concentration of 1 mM. Incubations were terminated at a specified time with the addition of 100 µL ice-cold acetonitrile containing the internal standard. The samples were then centrifuged, and aliquots of 10 µL of the supernatants were transferred into liquid chromatography-tandem mass spectrometry (LC-MS/MS) for the analysis of Compound-3 levels.

[3] = biological target: T1, CYP4F2 (Homo sapiens, UniProt P78329); experiment: Reaction phenotyping with recombinant CYP4F2; format: in vitro ADME; details: recombinant CYP4F2 50 nM, 1 μM, NADPH, after 30 min incubation
T1 construct: purchased Corning Gentest
T1 sequence (P78329 5-520): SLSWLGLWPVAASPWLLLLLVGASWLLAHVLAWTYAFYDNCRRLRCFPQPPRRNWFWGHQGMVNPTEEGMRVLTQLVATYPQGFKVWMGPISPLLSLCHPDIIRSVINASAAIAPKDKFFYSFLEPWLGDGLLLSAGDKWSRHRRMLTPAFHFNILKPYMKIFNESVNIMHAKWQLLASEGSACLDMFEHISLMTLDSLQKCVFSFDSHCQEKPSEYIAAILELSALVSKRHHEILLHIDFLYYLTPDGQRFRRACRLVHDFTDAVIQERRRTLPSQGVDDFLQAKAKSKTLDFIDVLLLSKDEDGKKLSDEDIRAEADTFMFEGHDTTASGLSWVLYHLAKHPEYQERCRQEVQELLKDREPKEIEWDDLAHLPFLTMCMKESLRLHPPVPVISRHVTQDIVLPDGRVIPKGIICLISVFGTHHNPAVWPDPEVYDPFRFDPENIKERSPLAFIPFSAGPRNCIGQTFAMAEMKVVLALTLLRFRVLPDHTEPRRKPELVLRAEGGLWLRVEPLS
Procedure: Compound-3 was incubated separately with human cDNA-expressed cytochrome P450s (CYP1A2, CYP2B6, CYP2C8, CYP2C9, CYP2C19, CYP2D6, CYP3A4, CYP4A11, CYP4F2 and CYP4F3). The incubation mixtures contained individual CYP isoenzymes (50 nM), potassium phosphate buffer (100 mM, pH 7.4), NADPH (1 mM), and Compound-3 (1 µM). The final volume of the incubation mixture was 50 µL. Before the start of the incubation, reaction mixtures were warmed up at 37 °C for 10 min. The reaction was initiated with the addition of NADPH and the incubations were performed at 37 °C in a water bath. […] Control samples without NADPH but substrates were included. The samples were then centrifuged and aliquots of 10 μL of the supernatants were transferred onto LC-MS/MS for the analysis of Compound-3 and M4 (carboxylic acid) levels.
The following are available online. Figure S1. Gemcitabine Formation from Compound-3 Hydrolysis as a function of alkaline phosphatase protein concentrations. Compound-3 (1 μM) was incubated with alkaline phosphatase concentrations ranging from 0.01–0.2 mg/mL at 37 °C (n = 3). Figure S2. Metabolites of Compound-3 in human recombinant CYP4F2. Compound-3 (1 μM) was incubated with human recombinant CYP4F2 (50 nM) in the presence of NADPH at 37 °C (n = 3).

[4] = Metabolite identification by UPLC/Triple TOF MS in rat intestinal microsomes; format: in vitro ADME; design: key: √: metabolites were detected by high-resolution mass spectrometry; details: Compound-3 10 μM, NADPH, 60 min, HRMS
[5] = Stability in rat plasma; format: in vitro ADME; details: 1 μM, 37 °C
Procedure: For stability testing in plasma, the reaction was started with the addition of Compound-3 (1 µM). At specified time points, aliquots of 25 µL of the reaction mixtures were transferred into 100 μL ice-cold acetonitrile containing the internal standard. The samples were then centrifuged, and aliquots of 10 µL of the supernatants were transferred onto LC-MS/MS for the analysis of Compound-3 levels.

[6] = tested on: H460 tumor xenograft (non-small cell lung cancer); details: cited from earlier work

SMILES: CCCCCCCCCCCCCCCCCCOCCOP(=O)(O)OCC1OC(n2ccc(N)nc2=O)C(F)(F)C1O (stereo not drawn) [Compound-3]
- disappearance after 60 min incubation [1]: ~ 30%
- disappearance after 60 min incubation [2]: > 50%
- disappearance of Compound-3 in the presence of CYP isozyme [3]: barely detectable
- detected in matrix RIM [4]: √
- disappearance in plasma [5]: did not display noticeable disappearance
- oral activity in tumor xenograft model [6]: orally active
